# According to patent US20250263415A1, “TERTIARY AMIDE DERIVATIVES SUBSTITUTED WITH 4-MEMBERED RING STRUCTURE” (Sumitomo Pharma Co., Ltd., priority 2024, published 2025):
# Legend:
# [1] = Pharmacokinetic study in mice; assay type: in vivo
# Procedure: The test compound was administered to 7-week-old female BALE/c (BALB/cAnN CrlCrlj) mice intravenously (dosage: 1 mg/kg) in a 50% PEG solution (0.01 mol/L HCl) or orally (dosage: 10 mg/kg) in a 0.5% methylcellulose aqueous solution, and blood was collected at the following times: • Intravenous administration: 5 min, 15 min, 30 min, 1 hr, 2 hr, 4 hr, 6 hr, and 24 hr after administration • Oral administration: 15 min, 30 min, 1 hr, 2 hr, 4 hr, 6 hr, and 24 hr after administration
# The collected blood was centrifuged at 3000 rpm×10 min using a refrigerated centrifuge set at 4° C., and the obtained plasma was measured by LC-MS. A calibration curve was prepared from the value (peak ratio) obtained by dividing the peak area of the test substance by the peak area of the internal standard substance in MS and the concentration of the plasma calibration curve sample. The concentration in the sample was calculated from the peak ratio and the calibration curve of each sample.
# [2] = target: hSERT (Homo sapiens (Human), UniProt P31645); assay: Serotonin receptor inhibitory activity evaluation (binding assay, HEK293/hSERT membranes); details: off-target
# Procedure: The binding evaluation assay was outsourced to Eurofins. Specifically, HEK293/hSERT cells were homogenized in a buffer consisting of 100 mmol/L NaCl, 1 μmol/L Leupeptin, 10 μmol/L PMSF, and 50 mmol/L Tris-HCl (pH7.4). The membrane pellet obtained by centrifugation was resuspended in an incubation buffer consisting of 50 mmol/L Tris-HCl (pH 7.4), 120 mmol/L NaCl, and 5 mmol/L KCl to prepare a membrane preparation. The test compound (1-10 μmol/L DMSO solution), the membrane preparation, and 0.4 nmol/L [^3H]Paroxetin were mixed and incubated at 25° C. for 60 minutes. The cell membrane-[^3H]Paroxetin complex was bound to a GF/B filter mat by vacuum filtration and washed with 50 mmol/L Tris-HCl (pH 7.4). The effect on the receptor was assessed by measuring radioactivity using a scintillation counter.
# [3] = target: recombinant p300 (Homo sapiens (Human), UniProt Q09472); assay: HAT activity inhibition experiment (SensoLyte HAT(p300) Assay Kit); assay type: biochemical
# Procedure: The HAT activity inhibitory ability of HAT inhibitors was evaluated using SensoLyte HAT(p300) Assay Kit (ANASPEC, AS-72172). Specifically, 7.5 μL of the compound of Examples […] diluted with assay buffer was added to 7.5 μL of recombinant p300 solution diluted 10 times with assay buffer, and the mixture was incubated at room temperature for 10 minutes. 7.5 μL of acetyl CoA solution diluted 10 times with assay buffer and 15 μL of histone H3 peptide diluted 10 times with assay buffer were added thereto, and the mixture was incubated at 37° C. for 30 minutes. 37.5 μL of Stop Solution was added to stop the reaction. 75 μL of p300 Developer solution diluted 50 times with assay buffer was added, and the mixture was incubated at room temperature for 30 minutes under light-shielded conditions. The fluorescence at 513 nm when irradiated with 389 nm excitation light was measured using a multiplate reader.
# [4] = Solubility test; assay type: physicochemical; details: pH 2.0 and pH 3.0 buffers
# Procedure: The solubility was measured for Examples 7, 10, 20, 23, 24, and 30 to 34, Comparative Example 1, and Comparative Example 2. The test compound was added to 10 mmol/L glycine buffer (pH 2.0) and 10 mmol/L citrate buffer (pH 3.0), and the mixture was stored in a thermostatic chamber at 5° C. After standing overnight, the mixture was filtered through a membrane filter, and the concentration of the filtrate was measured by HPLC.
# The HPLC measurement conditions are as follows.
# HPLC conditions • Column: Acquity UPLC BEH C18, 1.7 μm, 50×2.1 mm • Column temperature: 40° C. • Mobile phase: A: 0.1% trifluoroacetic acid-containing water • B: acetonitrile • A/B (min): 95/5 (0)→0/100 (3.5)→0/100 (4)→95/5 (4.01)→95/5 (5) • Flow rate: 0.8 mL/min • Detection: UV visible detector, measurement wavelength 254 nm • Injection volume: 5 μL or • Column: Acquity UPLC BEH C18, 1.7 μm, 50×2.1 mm • Column temperature: 40° C. • Mobile phase: A: 0.1% trifluoroacetic acid-containing water • B: acetonitrile • A/B (min): • 80/20 (0)→40/60 (3.0)→0/100 (3.5)→0/100 (4)→80/20 (4.01)→80/20 (5) • Flow rate: 0.8 mL/min • Detection: UV visible detector, measurement wavelength 254 nm • Injection volume: 2 μL or • Column: Acquity UPLC BEH C18, 1.7 μm, 50×2.1 mm • Column temperature: 40° C. • Mobile phase: A: 0.1% trifluoroacetic acid-containing water • B: acetonitrile • A/B (min): • 80/20 (0)→40/60 (3.0)→0/100 (3.5)→0/100 (4)→100/0 (4.01)→100/0 (5) • Flow rate: 0.8 mL/min • Detection: UV visible detector, measurement wavelength 254 nm • Injection volume: 3 μL
# [5] = test system: G-401 xenograft; assay: Drug efficacy evaluation by oral administration using G-401 xenograft model mice; assay type: in vivo
# Procedure: (§1) G-401 cells (ATCC) were intradermally transplanted into 4-7-week-old BALB/cAnNCrj-nu/nu mice (CAnN.Cg-Foxnl/CrlCrlj, Jackson Laboratory Japan) at 5×10^5 cells/mouse. After confirming the engraftment of G-401 cells 10-40 days after transplantation, the test compound suspended in a solvent such as 0.5% methylcellulose solution was orally administered twice a day at a dose of 1-100 mg/kg. The tumor volume was measured over time from the start of administration, and the effect of tumor volume reduction by administration of the test compound was evaluated. The tumor volume can be calculated from the following equation using the minor axis and major axis of the tumor measured with an electronic caliper (Mitutoyo).
# A control administration group administered with only a solvent such as 0.5% methylcellulose solution and a test compound administration group were compared, and the antitumor effect was evaluated by calculating T/C from the following equation.
# [6] = test system: G-401 cells; assay: Cell proliferation inhibition experiment using G-401 cells; assay type: cell-based
# Procedure: G-401 cells (derived from malignant rhabdoid tumor) were obtained from the American Type Culture Collection (ATCC). G-401 cells were cultured in McCoy's 5A medium containing 10% fetal bovine serum and 1% penicillin/streptomycin under conditions of 37° C. and 5% CO2.
# 500 cells per well were seeded in a 384-well plate. One day after seeding, Examples 1 to 35 were added so that the final concentration of DMSO was 0.1%, and the cells were cultured for 3 days. After the culture was completed, the cell viability was measured using CellTiter-Glo Luminescent Cell Viability Assay (Promega, G7570).
# [7] = target: hDAT (Homo sapiens (Human), UniProt Q01959); assay: Dopamine receptor inhibitory activity evaluation (binding assay, CHO-S/hDAT membranes); details: off-target
# Procedure: The binding evaluation assay was outsourced to Eurofins. Specifically, CHO—S/hDAT cells were homogenized in an incubation buffer consisting of 50 mmol/L Tris-HCl, pH 7.4, 100 mmol/L NaCl, 1 μmol/L Leupeptin, and 10 μmol/L PMSF. The membrane pellet obtained by centrifugation was resuspended in the incubation buffer to prepare a membrane preparation. The test compound (1-10 μmol/L DMSO solution), the membrane preparation, and 0.15 nmol/L […] were mixed and incubated at 4° C. for 180 minutes. The cell membrane-[^125I]RTI-55 complex was bound to a GF/B filter mat by vacuum filtration and washed with 50 mmol/L Tris-HCl, pH 7.4. The effect on the receptor was assessed by measuring radioactivity using a scintillation counter.
# [8] = test system: G-401 xenograft; assay: Drug efficacy evaluation by intravenous administration using G-401 xenograft mice model; assay type: in vivo; details: G-401 xenograft model
# Procedure: as §1, with “as 10 mmol/L glycine buffer” for “as 0.5% methylcellulose”, “solution (pH 2.0)” for “solution”, “was” for “was orally”, “administered via the tail vein at least once” for “administered twice”, “a week” for “a day”, “of 0.015-20” for “of 1-100”
# A control administration group administered with only a solvent such as 10 mmol/L glycine buffer solution (pH 2.0) and a test compound administration group were compared, and the antitumor effect was evaluated by calculating T/C from the following equation.
# recombinant p300, sequence (Q09472 whole entry): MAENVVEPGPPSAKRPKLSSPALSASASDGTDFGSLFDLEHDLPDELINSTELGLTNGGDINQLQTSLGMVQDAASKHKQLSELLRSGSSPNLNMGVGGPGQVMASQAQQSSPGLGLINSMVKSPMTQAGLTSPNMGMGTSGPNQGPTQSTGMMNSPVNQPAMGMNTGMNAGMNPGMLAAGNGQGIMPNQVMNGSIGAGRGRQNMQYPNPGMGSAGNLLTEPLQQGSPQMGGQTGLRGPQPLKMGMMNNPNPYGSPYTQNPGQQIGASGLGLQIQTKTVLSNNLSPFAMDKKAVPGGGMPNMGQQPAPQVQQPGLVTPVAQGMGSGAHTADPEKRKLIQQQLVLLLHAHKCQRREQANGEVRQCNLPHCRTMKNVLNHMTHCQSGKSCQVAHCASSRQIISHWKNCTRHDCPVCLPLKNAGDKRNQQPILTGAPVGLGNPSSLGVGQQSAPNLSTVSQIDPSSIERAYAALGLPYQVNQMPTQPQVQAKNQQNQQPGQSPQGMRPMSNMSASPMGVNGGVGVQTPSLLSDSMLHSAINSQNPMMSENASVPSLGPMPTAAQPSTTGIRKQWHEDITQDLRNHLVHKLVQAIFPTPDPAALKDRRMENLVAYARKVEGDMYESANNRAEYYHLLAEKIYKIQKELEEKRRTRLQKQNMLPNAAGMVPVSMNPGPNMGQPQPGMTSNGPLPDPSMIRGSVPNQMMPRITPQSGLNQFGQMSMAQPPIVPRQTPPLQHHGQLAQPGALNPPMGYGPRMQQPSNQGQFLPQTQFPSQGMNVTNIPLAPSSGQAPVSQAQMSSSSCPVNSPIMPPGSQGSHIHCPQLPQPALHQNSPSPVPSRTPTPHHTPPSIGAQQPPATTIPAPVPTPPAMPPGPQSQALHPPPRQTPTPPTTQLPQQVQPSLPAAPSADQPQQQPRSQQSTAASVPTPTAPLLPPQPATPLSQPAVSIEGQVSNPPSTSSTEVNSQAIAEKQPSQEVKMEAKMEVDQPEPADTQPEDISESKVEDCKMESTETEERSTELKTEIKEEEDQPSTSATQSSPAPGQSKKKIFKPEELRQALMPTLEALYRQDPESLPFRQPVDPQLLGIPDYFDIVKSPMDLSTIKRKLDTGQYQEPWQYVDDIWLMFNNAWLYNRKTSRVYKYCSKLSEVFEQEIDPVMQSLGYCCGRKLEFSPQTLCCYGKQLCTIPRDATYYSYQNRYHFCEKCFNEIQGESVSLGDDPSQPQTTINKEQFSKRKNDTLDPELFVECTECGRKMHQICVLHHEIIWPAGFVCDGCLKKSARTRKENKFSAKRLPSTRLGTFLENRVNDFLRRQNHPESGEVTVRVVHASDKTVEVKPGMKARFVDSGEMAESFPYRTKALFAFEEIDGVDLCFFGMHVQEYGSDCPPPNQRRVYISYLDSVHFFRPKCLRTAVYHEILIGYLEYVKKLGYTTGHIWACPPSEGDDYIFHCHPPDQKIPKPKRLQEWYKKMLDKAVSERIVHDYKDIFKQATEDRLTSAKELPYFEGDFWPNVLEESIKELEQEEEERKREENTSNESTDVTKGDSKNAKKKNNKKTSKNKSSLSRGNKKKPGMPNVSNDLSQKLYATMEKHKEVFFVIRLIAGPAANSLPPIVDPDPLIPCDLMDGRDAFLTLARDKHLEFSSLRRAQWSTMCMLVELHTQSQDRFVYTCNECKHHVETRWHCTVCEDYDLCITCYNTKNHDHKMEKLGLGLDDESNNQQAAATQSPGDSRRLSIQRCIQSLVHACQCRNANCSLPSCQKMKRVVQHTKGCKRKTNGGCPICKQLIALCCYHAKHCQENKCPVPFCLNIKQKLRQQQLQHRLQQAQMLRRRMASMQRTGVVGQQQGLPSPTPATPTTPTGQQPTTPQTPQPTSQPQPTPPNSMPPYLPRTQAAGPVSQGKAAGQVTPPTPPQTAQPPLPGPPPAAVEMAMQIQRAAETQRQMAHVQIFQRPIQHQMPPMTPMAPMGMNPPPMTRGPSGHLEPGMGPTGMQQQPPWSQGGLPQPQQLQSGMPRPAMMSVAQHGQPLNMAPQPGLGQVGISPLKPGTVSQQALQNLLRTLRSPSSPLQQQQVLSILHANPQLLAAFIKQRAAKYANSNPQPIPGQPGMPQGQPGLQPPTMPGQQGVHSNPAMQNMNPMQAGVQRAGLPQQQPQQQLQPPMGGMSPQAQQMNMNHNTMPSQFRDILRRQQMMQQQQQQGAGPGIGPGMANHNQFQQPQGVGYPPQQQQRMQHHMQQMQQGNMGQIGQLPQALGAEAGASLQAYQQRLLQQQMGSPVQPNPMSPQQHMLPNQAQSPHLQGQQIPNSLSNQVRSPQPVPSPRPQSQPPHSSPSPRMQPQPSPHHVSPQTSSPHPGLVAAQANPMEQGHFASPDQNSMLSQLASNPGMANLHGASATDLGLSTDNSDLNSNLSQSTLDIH
# hSERT, sequence (P31645 whole entry): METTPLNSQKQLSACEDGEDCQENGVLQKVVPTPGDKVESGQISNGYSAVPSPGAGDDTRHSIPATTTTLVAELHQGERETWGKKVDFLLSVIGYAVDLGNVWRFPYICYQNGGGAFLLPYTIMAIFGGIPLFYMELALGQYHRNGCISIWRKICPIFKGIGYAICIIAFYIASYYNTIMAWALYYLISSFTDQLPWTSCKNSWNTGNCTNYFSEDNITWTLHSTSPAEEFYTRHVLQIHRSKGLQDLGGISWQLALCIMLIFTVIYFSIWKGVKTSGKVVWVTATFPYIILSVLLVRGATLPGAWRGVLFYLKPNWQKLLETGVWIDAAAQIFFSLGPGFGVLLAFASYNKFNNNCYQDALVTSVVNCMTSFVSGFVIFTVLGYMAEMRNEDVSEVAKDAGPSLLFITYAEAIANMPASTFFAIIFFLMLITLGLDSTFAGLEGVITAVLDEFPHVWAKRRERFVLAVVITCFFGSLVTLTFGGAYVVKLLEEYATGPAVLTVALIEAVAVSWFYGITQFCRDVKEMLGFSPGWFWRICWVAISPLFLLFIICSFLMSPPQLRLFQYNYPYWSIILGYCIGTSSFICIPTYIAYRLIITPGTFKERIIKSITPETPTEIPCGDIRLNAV
# hDAT, sequence (Q01959 whole entry): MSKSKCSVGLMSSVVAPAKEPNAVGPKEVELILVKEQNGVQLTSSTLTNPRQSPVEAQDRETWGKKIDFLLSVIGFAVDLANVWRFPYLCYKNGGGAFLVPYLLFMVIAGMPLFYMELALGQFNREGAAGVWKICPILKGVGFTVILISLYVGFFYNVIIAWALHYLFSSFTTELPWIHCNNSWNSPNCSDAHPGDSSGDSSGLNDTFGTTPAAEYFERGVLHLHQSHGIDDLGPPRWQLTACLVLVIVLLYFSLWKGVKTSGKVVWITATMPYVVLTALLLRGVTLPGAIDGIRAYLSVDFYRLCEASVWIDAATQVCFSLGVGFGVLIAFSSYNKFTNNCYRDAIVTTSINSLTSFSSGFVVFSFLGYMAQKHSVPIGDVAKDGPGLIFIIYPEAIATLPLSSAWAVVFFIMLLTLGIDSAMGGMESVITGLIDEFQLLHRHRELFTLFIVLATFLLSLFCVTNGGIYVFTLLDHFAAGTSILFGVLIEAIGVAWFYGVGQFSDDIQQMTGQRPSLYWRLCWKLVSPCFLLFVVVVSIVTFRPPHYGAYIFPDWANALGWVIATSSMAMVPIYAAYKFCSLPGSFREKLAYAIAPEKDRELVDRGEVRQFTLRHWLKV
structure (smiles),measurement,setting,value
"O=C1N[C@]2(C[C@@H](F)c3cc(-c4cnn(C5CN(C6COC6)C5)c4)ccc32)C(=O)N1CC(=O)N(Cc1ccc(F)cn1)C1(C(F)(F)F)COC1 [Example 7, 2-[(1′S,3′R)-3′-fluoro-5′-{1-[1-(oxetan-3-yl)azetidin-3-yl]-1H-pyrazol-4-yl}-2,5-dioxo-2′,3′-dihydrospiro[imidazolidine-4,1′-inden]-1-yl]-N-[(5-fluoropyridin-2-yl)methyl]-N-[3-(trifluoromethyl)oxetan-3-yl]acetamide]",Pharmacokinetics (in words),[1],excellent pharmacokinetics
same,Inhibitory effect on serotonin receptors (in words),[2],did not show strong inhibitory activity
same,HAT activity inhibition (in words),[3],strong inhibition of HAT activity
same,Solubility (in words),[4],high solubility
same,"Antitumor effect, oral administration (in words)",[5],strong antitumor effects
same,Cell proliferation inhibitory effect on G-401 cells (in words),[6],strong cell proliferation inhibitory effect
same,Inhibitory effect on dopamine receptors (in words),[7],did not show strong inhibitory activity
same,"Antitumor effect, intravenous administration (in words)",[8],strong antitumor effects
